# ChEMBL document CHEMBL1201862, “PubChem BioAssay data set” (2004)
#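 The compound was tested at five concentrations on cells cultured in 96-well plates, with a 48-hour exposure period. GI50 is the concentration that inhibits growth by half.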 Calls of active or inactive are those of the source. Cut-off read from the data, not from the text of the source: active = GI50 up to about 1.1 µM and inactive = higher.
# Key:
# Test in all cases: growth of human tumour cells (NCI), 48 h
# SN12C = test system: SN12C
# 786-0 = test system: 786-0
# RXF 393 = test system: RXF 393
# SF-295 = test system: SF-295
# CCRF-CEM = test system: CCRF-CEM
# HCT-116 = test system: HCT-116
# ACHN = test system: ACHN
# TK-10 = test system: TK-10
# A498 = test system: A498
# SW-620 = test system: SW-620
# SK-MEL-28 = test system: SK-MEL-28
# HT-29 = test system: HT-29
# NCI-H23 = test system: NCI-H23
# LOX IMVI = test system: LOX IMVI
# SF-539 = test system: SF-539
# UACC-257 = test system: UACC-257
# IGROV-1 = test system: IGROV-1
# NCI-H460 = test system: NCI-H460
# OVCAR-3 = test system: OVCAR-3
# PC-3 = test system: PC-3
# UO-31 = test system: UO-31
# NCI/ADR-RES = test system: NCI/ADR-RES
# HCT-15 = test system: HCT-15
# SR = test system: SR
# T47D = test system: T47D
# Malme-3M = test system: Malme-3M
# HCC 2998 = test system: HCC 2998
# HOP-62 = test system: HOP-62
# SK-MEL-2 = test system: SK-MEL-2
# MCF7 = test system: MCF7
# M14 = test system: M14
# DU-145 = test system: DU-145
# UACC-62 = test system: UACC-62
# MDA-N = test system: MDA-N
# SF-268 = test system: SF-268
# COLO 205 = test system: COLO 205
# MOLT-4 = test system: MOLT-4
# RPMI-8226 = test system: RPMI-8226
# SK-OV-3 = test system: SK-OV-3
# K562 = test system: K562
# A549 = test system: A549
# BT-549 = test system: BT-549
# OVCAR-5 = test system: OVCAR-5
# OVCAR-4 = test system: OVCAR-4
# CAKI-1 = test system: CAKI-1
# SNB-19 = test system: SNB-19
# HL-60 = test system: HL-60
# Hs-578T = test system: Hs-578T
# MDA-MB-435 = test system: MDA-MB-435
# SNB-75 = test system: SNB-75
# KM12 = test system: KM12
# HOP-92 = test system: HOP-92
# U-251 = test system: U-251
# SK-MEL-5 = test system: SK-MEL-5
structure (smiles),measurement,setting,value
[N-]=[N+]=NC1=C(c2ccccc2)C(=O)c2cccc3cccc1c23,GI50,SN12C,29.9 µM (inactive)
same,GI50,786-0,15.2 µM (inactive)
same,GI50,RXF 393,19.7 µM (inactive)
same,GI50,SF-295,11.2 µM (inactive)
same,GI50,CCRF-CEM,4.85 µM (inactive)
same,GI50,HCT-116,5.48 µM (inactive)
same,GI50,ACHN,6.01 µM (inactive)
same,GI50,TK-10,23.2 µM (inactive)
same,GI50,A498,1.52 µM (inactive)
same,GI50,SW-620,29.9 µM (inactive)
same,GI50,SK-MEL-28,33.3 µM (inactive)
same,GI50,HT-29,6.56 µM (inactive)
same,GI50,NCI-H23,24.9 µM (inactive)
same,GI50,LOX IMVI,14.4 µM (inactive)
same,GI50,SF-539,16.1 µM (inactive)
same,GI50,UACC-257,12.9 µM (inactive)
same,GI50,IGROV-1,15 µM (inactive)
same,GI50,NCI-H460,5.79 µM (inactive)
same,GI50,OVCAR-3,16.4 µM (inactive)
same,GI50,PC-3,8.26 µM (inactive)
same,GI50,UO-31,26.1 µM (inactive)
same,GI50,NCI/ADR-RES,45.5 µM (inactive)
same,GI50,HCT-15,17.8 µM
same,GI50,SR,11.4 µM (inactive)
same,GI50,T47D,5.12 µM (inactive)
same,GI50,Malme-3M,18.8 µM (inactive)
same,GI50,HCC 2998,11.4 µM (inactive)
same,GI50,HOP-62,15.2 µM (inactive)
same,GI50,SK-MEL-2,65 µM (inactive)
same,GI50,MCF7,26.9 µM (inactive)
same,GI50,M14,8.3 µM (inactive)
same,GI50,DU-145,28.9 µM (inactive)
same,GI50,UACC-62,5.86 µM (inactive)
same,GI50,MDA-N,12.2 µM (inactive)
same,GI50,SF-268,22.3 µM (inactive)
same,GI50,COLO 205,> 100 µM (inactive)
same,GI50,MOLT-4,2.55 µM (inactive)
same,GI50,RPMI-8226,7 µM (inactive)
same,GI50,SK-OV-3,25.8 µM (inactive)
same,GI50,K562,7.13 µM (inactive)
same,GI50,A549,11.9 µM (inactive)
same,GI50,BT-549,8.17 µM (inactive)
same,GI50,OVCAR-5,48.5 µM (inactive)
same,GI50,OVCAR-4,46.7 µM (inactive)
same,GI50,CAKI-1,33.6 µM (inactive)
same,GI50,SNB-19,38.9 µM (inactive)
same,GI50,HL-60,16.6 µM (inactive)
same,GI50,Hs-578T,10.1 µM (inactive)
same,GI50,MDA-MB-435,68.4 µM (inactive)
same,GI50,SNB-75,10.2 µM (inactive)
same,GI50,KM12,8.02 µM (inactive)
same,GI50,HOP-92,17.7 µM (inactive)
same,GI50,U-251,> 100 µM (inactive)
same,GI50,SK-MEL-5,2.77 µM (inactive)
